The test addresses T1, beta-amyloid 42 (Aβ42) (Homo sapiens, UniProt P05067).
T1 construct: Beta-amyloid 42 (Aβ42) was dissolved in dimethylsulfoxide (DMSO)
As to the kind of experiment: Inhibitory effect on the formation of beta-amyloid fibrils in vitro (ThT fluorescence assay). It counts as biochemical. As to conditions: for inhibition at 10 µM: read-out: % Inhibition (10 μM); for IC50: In vitro ThT analysis (Aβ42: 25 μM); for % inhibition against the beta-amyloid 42 formation compared with curcumin: Tables 1 to 6, relative to curcumin. On the procedure: In order to investigate the inhibitory effect on the formation of beta-amyloid fibrils, the inventive compounds were examined as follows:
Beta-amyloid 42 (Aβ42) was dissolved in dimethylsulfoxide (DMSO) to form a […] Aβ42 stock solution. In addition, ThT (thioflavin T) was dissolved in distilled water to a concentration of 1 mM and subsequently diluted with 50 mM glycin buffer (pH 8.5) to yield a 5 μM ThT stock solution.
45 μL of PBS (phosphate buffer saline, pH 7.4) was added to each of a 96 well fluorescence microplate (white, F-bottom). 5 μL of the 250 μM Aβ42 stock solution was added to each well. The final concentration of each compound obtained in Examples was in a range of 10 to 0.001 μM by adding 2 μL of a solution, which is prepared by dissolving the subject compounds obtained in Examples in DMSO, to each well. At this time, the final concentration of Aβ42 in each well was 25 μM. The plate was then incubated at room temperature for 1 hr, and 150 μL of the 5 μM ThT stock solution was added to each well.
The fluorescence intensity of each well was determined with the multi label fluorescence counter (LS-55 Luminescence spectrometer, Perkin Elmer) at an excitation wavelength of 450 nm (excitation slit width: 10 nm) and an emission wavelength of 482 nm (emission slit width: 10 nm), while adjusting counting time to 1 second. The control group was prepared by adding PBS solution, Aβ42 and DMSO, without adding the inventive compound. % Inhibition on the formation of beta-amyloid fibrils was calculated in accordance with the following equation and IC5O was calculated by using GraphPad Prism version 4.03 Program.
% Inhibition=[1−(C−D)/(A−B)]×100 Equation 1%
A (control group): fluorescence intensity in a group treated with PBS solution, Aβ42, and DMSO
B (blank): fluorescence intensity in a group treated with PBS solution and DMSO
C (experimental group): fluorescence intensity in a group treated with PBS solution, Aβ42, DMSO, and the inventive compound
D (compensation value to the experimental group): fluorescence intensity in a group treated with PBS solution, DMSO, and the inventive compound

Where [1] appears, read: 10 μM compound, Aβ42 25 μM, experiment of Table 2.
The mark [2] stands for this setting: 10 μM compound, Aβ42 25 μM, experiment of Table 6.
[3] abbreviates: 10 μM compound, Aβ42 25 μM, experiment of Table 5.
Setting [4] is: 10 μM compound, Aβ42 25 μM, experiment of Table 4.
Setting [5] is: 10 μM compound, Aβ42 25 μM, experiment of Table 3.

Counter-ions that a name gives are not always drawn. Like-named read-outs stand apart in the source and are kept apart here.

In general, inhibition refers to the drop in the measured response relative to a control, in per cent. Usually IC50 stands for the midpoint of a concentration-inhibition curve. A lower IC50 goes with greater potency.

T1 sequence (P05067 672-713 limits assumed): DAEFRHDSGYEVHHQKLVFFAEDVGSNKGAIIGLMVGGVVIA

For the molecule `COc1ccc(C=Cc2cc3cc(C)ccc3o2)cc1` [Compound 42, 5-methyl-2-(4-methoxystyryl)benzofuran], under setting [1], the inhibition at 10 µM was determined as 69.7%. The same molecule displayed an IC50 (experiment of Table 2) of 15900 nM.
Taken in the same sequence, the figures for `COc1ccc(C=Cc2cc3cc(C)ccc3o2)cc1OC` [Compound 43, 5-methyl-2-(3,4-dimethoxystyryl)benzofuran] were 69.4% and 10500 nM.
Take `CNc1ccc(C=Cc2cc3cc(OCCOCCF)ccc3o2)cc1` [Compound 44, 5-(2-(2-fluoroethoxy)ethoxy)-2-(4-methylaminostyryl)benzofuran]: the “% inhibition against the beta-amyloid 42 formation compared with curcumin” value (from here on “% inhibition”) is listed as “superior % inhibition”. In addition, under setting [2], the inhibition at 10 µM turned out to be 84.7%. Where the note is “experiment of Table 6”, this molecule registered an IC50 of 1490 nM.
As for `CNc1ccc(C=Cc2cc3cc(OCCOCCOCCF)ccc3o2)cc1` [Compound 45, 5-(2-(2-(2-fluoroethoxy)ethoxy)ethoxy)-2-(4-methylaminostyryl)benzofuran], under setting [3], the inhibition at 10 µM stood at 53.5%.
`CNc1ccc(C=Cc2cc3cc(I)ccc3o2)cc1` [Compound 46, 5-iodo-2-(4-methylaminostyryl)benzofuran]: the “% inhibition” value is given as “superior % inhibition”. The inhibition at 10 µM under setting [2] was found to be 61%. For the setting “experiment of Table 6”, this molecule displayed an IC50 of 1770 nM.
Take `CCN(CC)c1ccc(C=Cc2cc3cc(I)ccc3o2)cc1` [Compound 47, 5-iodo-2-(4-diethylaminostyryl)benzofuran]: the “% inhibition” value was “superior % inhibition”. Moreover, the inhibition at 10 µM under setting [3] came out at 63.3%. The IC50 (experiment of Table 5) was found to be 1050 nM.
For `CNc1ccc(C=Cc2cc3cc(I)ccc3o2)cc1OC` [Compound 48, 5-iodo-2-(3-methoxy-4-methylaminostyryl)benzofuran], the “% inhibition” value is “superior % inhibition”. For the same molecule, the inhibition at 10 µM under setting [2] stood at 74.2%. This molecule also gave an IC50 (experiment of Table 6) of 1050 nM.
As for `COc1ccc(C=Cc2cc3cc(I)ccc3o2)cc1` [Compound 49, 5-iodo-2-(4-methoxystyryl)benzofuran], the inhibition at 10 µM under setting [4] worked out at 38%. This molecule also showed an IC50 (experiment of Table 4) of 16800 nM.
Regarding `COc1ccc(C=Cc2cc3cc(I)ccc3o2)cc1OC` [Compound 50, 5-iodo-2-(3,4-dimethoxystyryl)benzofuran], the inhibition at 10 µM under setting [4] was found to be 62.4%. Further, the IC50 (experiment of Table 4) was determined as 5790 nM.
As for `COc1cc2cc(C=Cc3ccc(N(C)C)cc3)oc2cc1OC` [Compound 51, 5,6-dimethoxy-2-(4-dimethylaminostyryl)benzofuran], the inhibition at 10 µM under setting [3] was determined as 29.2%.
Still for that read-out and setting: the figure for `CCN(CC)c1ccc(C=Cc2cc3cc(OC)c(OC)cc3o2)cc1` [Compound 52, 5,6-dimethoxy-2-(4-diethylaminostyryl)benzofuran] is 42.3%; for `CNc1ccc(C=Cc2cc3cc(OC)c(OC)cc3o2)cc1OC` [Compound 53, 5,6-dimethoxy-2-(3-methoxy-4-methylaminostyryl)benzofuran] it is 56.2%.
As for `COc1ccc(C=Cc2cc3cc(OC)c(OC)cc3o2)cc1` [Compound 54, 5,6-dimethoxy-2-(4-methoxystyryl)benzofuran], the “% inhibition” value is reported as “superior % inhibition”. Further, under setting [2], the inhibition at 10 µM turned out to be 77.8%. The same molecule had an IC50 (experiment of Table 6) of 903 nM.
Consider `COc1ccc(C=Cc2cc3cc(OC)c(OC)cc3o2)cc1OC` [Compound 55, 5,6-dimethoxy-2-(3,4-dimethoxystyryl)benzofuran], for which the inhibition at 10 µM under setting [3] came out at 51.4%.
With `CCN(CC)c1ccc(C=Cc2cc3cc(O)ccc3o2)cc1` [Compound 56, 5-hydroxy-2-(4-diethylaminostyryl)benzofuran], the “% inhibition” value is on record as “superior % inhibition”. Moreover, the inhibition at 10 µM under setting [1] came out at 81.6%. Inhibition (experiment of Table 2) was half-maximal at 1300 nM (IC50).
With `CCN(CC)c1ccc(C=Cc2cc3ccc(OC)cc3o2)cc1` [Compound 57, 6-methoxy-2-(4-diethylaminostyryl)benzofuran], the inhibition at 10 µM under setting [5] was 62.8%.
Same read-out and setting: the figure for `COc1ccc(C=Cc2cc3ccc(OC)cc3o2)cc1` [Compound 58, 6-methoxy-2-(4-methoxystyryl)benzofuran] is 57.2%.
Regarding `COc1ccc2cc(C=Cc3ccc(OC)c(OC)c3)oc2c1` [Compound 59, 6-methoxy-2-(3,4-dimethoxystyryl)benzofuran], the “% inhibition” value is “superior % inhibition”. Also, the inhibition at 10 µM under setting [2] was 79.9%. Besides, the IC50 (experiment of Table 6) was found to be 1020 nM.
Turning to `Cc1ccc2cc(C=Cc3ccc(N)cc3)oc2c1` [Compound 61, 6-methyl-2-(4-aminostyryl)benzofuran trifluoroacetate], the inhibition at 10 µM under setting [5] was found to be 57.5%.
With `CNc1ccc(C=Cc2cc3ccc(C)cc3o2)cc1` [Compound 62, 6-methyl-2-(4-methylaminostyryl)benzofuran trifluoroacetate], the inhibition at 10 µM under setting [5] stood at 46.5%.
Consider `COc1ccc(C=Cc2cc3ccc(C)cc3o2)cc1OC` [Compound 65, 6-methyl-2-(3,4-dimethoxystyryl)benzofuran], for which the “% inhibition” value is given as “superior % inhibition”. The inhibition at 10 µM under setting [3] stood at 67.5%. Under “experiment of Table 5”, half-maximal inhibition (IC50) was put at 884 nM.
As to `CNc1ccc(C=Cc2cc3ccc(OCCOCCOCCF)cc3o2)cc1` [Compound 66, 6-(2-(2-(2-fluoroethoxy)ethoxy)ethoxy)-2-(4-methylaminostyryl)benzofuran], under setting [3], the inhibition at 10 µM came to 61.7%.
For the molecule `Nc1ccc(C=Cc2cc3ccc(O)cc3o2)cc1` [Compound 67, 6-hydroxy-2-(4-aminostyryl)benzofuran], the inhibition at 10 µM under setting [3] was found to be 60.2%.
On to `CNc1ccc(C=Cc2cc3ccc(O)cc3o2)cc1` [Compound 68, 6-hydroxy-2-(4-methylaminostyryl)benzofuran], for which the inhibition at 10 µM under setting [3] turned out to be 61.9%.
Still for that read-out and setting: for `CCN(CC)c1ccc(C=Cc2cc3ccc(O)cc3o2)cc1` [Compound 69, 6-hydroxy-2-(4-diethylaminostyryl)benzofuran] the value was 42.2%; for `CNc1ccc(C=Cc2cc3cc(OC)c(OC)cc3o2)cc1` [Compound 70, 5,6-dimethoxy-2-(4-methylaminostyryl)benzofuran], 25.8%.
Consider `COc1cc(/C=C/C(=O)CC(=O)/C=C/c2ccc(O)c(OC)c2)ccc1O` [curcumin, reference compound], for which the inhibition at 10 µM came out at 78.3%. Under setting [1], the inhibition at 10 µM came to 92.1%. Further, the inhibition at 10 µM under setting [4] worked out at 79.7%. Also, under setting [3], the inhibition at 10 µM is 67.8%. Also, the inhibition at 10 µM under setting [2] is 98.1%. The inhibition at 10 µM (10 μM compound, Aβ42 25 μM, experiment of Table 7) stood at 76.4%.
As to `COc1ccc2cc(/C=C/c3ccc(N(C)C)cc3)oc2c1` [hydrochloride of Ex. 9], the “% inhibition” value is listed as “superior % inhibition”. Further, the inhibition at 10 µM under setting [2] is 62.9%. Under “experiment of Table 6”, this molecule displayed a 50% inhibitory concentration (IC50) of 1880 nM.
Taken in the same sequence, the figures for `CNc1ccc(/C=C/c2cc3cc(OC)ccc3o2)cc1` [hydrochloride of Ex. 17] were “superior % inhibition”, 74.1% and 661 nM.

Source of the values: US20110124888A1, “STYRYLBENZOFURAN DERIVATIVES AS INHIBITORS FOR BETA-AMYLOID FIBRIL FORMATION AND PREPARATION METHOD THEREOF” (Korea Institute of Science and Technology, priority 2008, published 2011).
